The values below come from PMC11143257, “Atomistic mechanism of coupling between cytosolic sensor domain and selectivity filter in TREK K2P channels” (Nature Communications, 2024).

What all share (assay): MTS probe modification, inside-out patch-clamp
In general terms: In patch-clamp work, channel activity is measured electrically.

The target in assay [1] is T1, WT TRAAK (Homo sapiens, UniProt Q9NYG8).
T1 construct: expressed in transfected cells; host or cells: Xenopus laevis oocytes (cRNA injection), excised inside-out patches
T1 sequence (Q9NYG8 1-393): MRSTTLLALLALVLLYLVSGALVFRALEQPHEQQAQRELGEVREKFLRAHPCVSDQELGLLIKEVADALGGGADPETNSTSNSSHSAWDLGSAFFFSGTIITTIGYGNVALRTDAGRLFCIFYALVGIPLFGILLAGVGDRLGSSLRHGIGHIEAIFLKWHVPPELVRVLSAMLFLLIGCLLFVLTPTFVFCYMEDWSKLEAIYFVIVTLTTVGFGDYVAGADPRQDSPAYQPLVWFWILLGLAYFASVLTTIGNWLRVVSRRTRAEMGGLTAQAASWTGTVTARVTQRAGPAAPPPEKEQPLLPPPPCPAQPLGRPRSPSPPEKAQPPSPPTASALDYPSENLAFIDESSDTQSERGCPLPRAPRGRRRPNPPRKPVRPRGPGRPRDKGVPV
It is filed as cell-based. The following applies: 100 µM decyl-MTS for at least 30 s, symmetrical K+, pH 7.4, +40 mV. How it is done:
(§1) First, we measured WT TREK-1, WT TRAAK and TREK-2^* channels without modifiable cysteine residues as references. Upon application of 100 µM of decyl-MTS for at least 30 s to the respective channel in excised membrane patches, no change in current amplitudes was recognized (Fig. 2a and Supplementary Fig. 2a, b). Note, that patch integrity and channel regulation were tested with either 1 mM tetra-pentyl-ammonium (TPenA) and a short pHi activation step. Next, we conducted systematic cysteine scanning mutagenesis of the entire pCt and examined the effect of charged and aliphatic MTS probes. […] Remarkably, all hit residues face toward the inner leaflet of the lipid bilayer (Fig. 2b, inlay).
(§2) Xenopus laevis oocytes were surgically removed from anesthetized adult females, treated with type II collagenase (Sigma-Aldrich/Merck, Germany) and manually defolliculated. […] Currents were recorded with an EPC10 amplifier (HEKA electronics, Germany) and sampled at 10 kHz or higher and filtered with 3 kHz (-3 dB) or higher as appropriate for the sampling rate. […]
(§3) The fold current increase (fold activation) of a ligand (decyl-MTS) was calculated from the following equation:1 FoldactivationFA=Iactivated/Ibasal with Iactivated represents the stable current level in the presence of 100 µM decyl-MTS and Ibasal the measured current before application of the MTS probe.

In assay [2] the target is T2, TREK-2* (Homo sapiens, UniProt P57789).
T2 sequence (P57789 67-355 isoform P57789-4): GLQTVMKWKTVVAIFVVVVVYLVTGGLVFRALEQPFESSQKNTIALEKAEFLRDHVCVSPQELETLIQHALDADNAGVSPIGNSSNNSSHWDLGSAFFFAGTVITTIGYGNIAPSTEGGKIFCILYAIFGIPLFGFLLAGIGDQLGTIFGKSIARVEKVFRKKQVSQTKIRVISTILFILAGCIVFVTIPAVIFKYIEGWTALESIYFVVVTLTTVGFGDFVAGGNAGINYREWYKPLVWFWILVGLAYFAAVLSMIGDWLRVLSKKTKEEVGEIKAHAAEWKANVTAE
It is filed as cell-based. Also on record: was truncated from WT and includes amino acids 67 - 355; expressed in transfected cells; host or cells: Xenopus laevis oocytes (cRNA injection), excised inside-out patches. The following applies: 100 µM decyl-MTS for at least 30 s, symmetrical K+, pH 7.4, +40 mV. On the procedure:
as §1
In this study, the coding sequences of human K2P2.1 TREK-1 (Genbank accession number: NM_172042), rat K2P2.1 TREK-1 (NM_172041.2), human K2P10.1 TREK-2 (NM_021161) and human K2P4.1 TRAAK (AF247042) were used. […]
as §2

In assay [3] the test system is corresponding cysteine mutant channels in TRAAK. The format is cell-based, human. The note with it: decyl-MTS. On the procedure: as §1, §2, §3

SMILES strings stand for the structures. “Also recorded” adds a separate entry of the source.

In the case of `CCCCCCCCCCSS(C)(=O)=O` [decyl-MTS, Decyl-MethaneThioSulfonate], the “effect on current amplitude” value in assay [1] and in assay [2] was “no change; also recorded: no effect” throughout. Further, the “effect on current” value in assay [3] is “similarly activated”.
